Laboratory results published in ChEMBL document CHEMBL3045909, “Synthesis and antitumor studies of novel benzopyrano-1,2,3-selenadiazole and spiro[benzopyrano]-1,3,4-thiadiazoline derivatives” (Med Chem Res, 2013).
pIC50: −log10 of the molar value. Calls of active or inactive are those of the source. The rule behind the calls is not given here.

What was measured:
[1] = system: HepG2; test: Cytotoxicity against Homo sapiens (human) HepG2 cells assessed as inhibition of cell survival after 96 hr; assay type: functional, cell-based; details: HepG2, 96 h
[2] = system: MCF7; test: Cytotoxicity against Homo sapiens (human) MCF7 cells assessed as inhibition of cell survival after 96 hr; assay type: functional, cell-based; details: MCF7, 96 h
[3] = system: Vero; test: Cytotoxicity against Chlorocebus aethiops (African green monkey) Vero cells assessed as inhibition of cell survival after 96 hr; assay type: functional, cell-based; details: Chlorocebus sabaeus
[4] = system: WI-38; test: Cytotoxicity against Homo sapiens (human) WI38 cells assessed as inhibition of cell survival after 96 hr; assay type: functional, cell-based; details: WI-38, 96 h
[5] = system: Ehrlich; test: Antitumor activity against Ehrlich ascites carcinoma cells xenografted in Swiss albino Mus musculus (mouse) assessed as decrease in tumour size at 50 mg/kg, ip qd for 9 days administered at 24 hr after tumour cell inoculation; assay type: functional, organism-based; set-up: dose 50 mg/kg
[6] = Antitumor activity against Ehrlich ascites carcinoma cells xenografted in Swiss albino Mus musculus (mouse) assessed as increase in lifespan at 20 mg/kg, ip qd for 9 days administered at 24 hr after tumour cell inoculation; assay type: functional; details: route intraperitoneal
[7] = system: Mus musculus; test: Increase in hematocrit content in Ehrlich ascites carcinoma xenografted Swiss albino Mus musculus (mouse) blood at 20 mg/kg, ip qd for 9 days administered at 24 hr after tumour cell inoculation measured on day 14 post-tumor cell implantation (reference value: 35.50%); assay type: functional; details: route intraperitoneal
[8] = system: Ehrlich; test: Antitumor activity against Ehrlich ascites carcinoma cells xenografted in Swiss albino Mus musculus (mouse) assessed as decrease in abdominal ascites at 50 mg/kg, ip qd for 9 days administered at 24 hr after tumour cell inoculation; assay type: functional, organism-based; set-up: dose 50 mg/kg
[9] = system: Ehrlich; test: Antitumor activity against Ehrlich ascites carcinoma cells xenografted in Swiss albino Mus musculus (mouse) assessed as decrease in tumour size at 20 mg/kg, ip qd for 9 days administered at 24 hr after tumour cell inoculation; assay type: functional, organism-based; set-up: dose 20 mg/kg
[10] = Acute toxicity in ip dosed Ehrlich ascites carcinoma xenografted Swiss albino Mus musculus (mouse) assessed as mortality administered once a day for 9 days at 24 hr after tumour cell inoculation; assay type: organism-based; details: in vivo
[11] = system: Mus musculus; test: Increase in hemoglobin content in Ehrlich ascites carcinoma xenografted Swiss albino Mus musculus (mouse) blood at 20 mg/kg, ip qd for 9 days administered at 24 hr after tumour cell inoculation measured on day 14 post-tumor cell implantation (reference value: 8.70 g/dl); assay type: functional; details: route intraperitoneal
[12] = system: Mus musculus; test: Neurotoxicity in Ehrlich ascites carcinoma xenografted Swiss albino Mus musculus (mouse) assessed as effect on tremor, twitch, jumping, drowsy at >500 mg/kg, ip qd for 9 days administered at 24 hr after tumour cell inoculation; assay type: toxicity, organism-based; details: in vivo
[13] = system: Mus musculus; test: Acute toxicity in Ehrlich ascites carcinoma xenografted Swiss albino Mus musculus (mouse) assessed as decrease in locomotor activity at >500 mg/kg, ip qd for 9 days administered at 24 hr after tumour cell inoculation; assay type: organism-based; details: in vivo
[14] = Antitumor activity against Ehrlich ascites carcinoma cells xenografted in Swiss albino Mus musculus (mouse) assessed as carcinoma cell viability at 20 mg/kg, ip qd for 5 days administered at 24 hr after tumour cell inoculation by trypan blue assay (reference value: 220x10^6/ml); assay type: functional; details: route intraperitoneal
[15] = Antitumor activity against Ehrlich ascites carcinoma cells xenografted in Swiss albino Mus musculus (mouse) assessed as mean survival time at 20 mg/kg, ip qd for 9 days administered at 24 hr after tumour cell inoculation (reference value: 9.10/day); assay type: functional; details: route intraperitoneal
[16] = system: Ehrlich; test: Antitumor activity against Ehrlich ascites carcinoma cells xenografted in Swiss albino Mus musculus (mouse) assessed as decrease in abdominal ascites at 20 mg/kg, ip qd for 9 days administered at 24 hr after tumour cell inoculation; assay type: functional, organism-based; set-up: dose 20 mg/kg
[17] = Antitumor activity against Ehrlich ascites carcinoma cells xenografted in Swiss albino Mus musculus (mouse) assessed as carcinoma cell viability at 50 mg/kg, ip qd for 5 days administered at 24 hr after tumour cell inoculation by trypan blue assay (reference value: 220x10^6/ml); assay type: functional; details: route intraperitoneal
[18] = system: Mus musculus; test: Increase in hematocrit content in Ehrlich ascites carcinoma xenografted Swiss albino Mus musculus (mouse) blood at 50 mg/kg, ip qd for 9 days administered at 24 hr after tumour cell inoculation measured on day 14 post-tumor cell implantation (reference value: 35.50%); assay type: functional; details: route intraperitoneal
[19] = Antitumor activity against Ehrlich ascites carcinoma cells xenografted in Swiss albino Mus musculus (mouse) assessed as increase in lifespan at 50 mg/kg, ip qd for 9 days administered at 24 hr after tumour cell inoculation; assay type: functional; details: route intraperitoneal
[20] = system: Mus musculus; test: Increase in hemoglobin content in Ehrlich ascites carcinoma xenografted Swiss albino Mus musculus (mouse) blood at 50 mg/kg, ip qd for 9 days administered at 24 hr after tumour cell inoculation measured on day 14 post-tumor cell implantation (reference value: 8.70 g/dl); assay type: functional; details: route intraperitoneal
[21] = Antitumor activity against Ehrlich ascites carcinoma cells xenografted in Swiss albino Mus musculus (mouse) assessed as mean survival time at 50 mg/kg, ip qd for 9 days administered at 24 hr after tumour cell inoculation (reference value: 9.10/day); assay type: functional; details: route intraperitoneal

SMILES	pIC50 [1]	pIC50 [2]	pIC50 [3]	pIC50 [4]	other results
CC(=O)NC1=NN(C(C)=O)C2(CC3(CCCCC3)Oc3ccc(OC(C)=O)cc32)S1 (stereo not drawn)	4.15	4.10	4.10	4.10	
CC(=O)NC1=NN(C(C)=O)C2(CC3(CCCC3)Oc3ccc(OC(C)=O)cc32)S1 (stereo not drawn)	4.30	4.30	4.40	4.40	
CCC1(C)CC2(SC(NC(C)=O)=NN2C(C)=O)c2cc(OC(C)=O)ccc2O1 (stereo not drawn)	3.21	3.00	3.20	3.08	
CCC1(C)Oc2ccc(O)cc2-c2nn[se]c21 (stereo not drawn)	4.30	4.22	4.22	4.30	inhibition [5]: Active; Activity [6]: 73.63%; Activity [7]: 43.7%; inhibition [8]: Active; inhibition [9]: Active; LD50 at 9 days [10]: 247 mg/kg; Activity [11]: 10.5 g/dL; Activity [12]: Non-toxic; Activity [13]: Toxic; Activity [14]: 107 ×10⁶ /ml; MST [15]: 15.8 days; inhibition [16]: Active
CC1(C)CC(=O)c2cc(O)ccc2O1	3.32	3.39	3.38	3.37	
CCC1(C)C/C(=N\NC(N)=S)c2cc(O)ccc2O1 (stereo not drawn)	4.22	4.22	4.22	4.22	
NC(=O)N/N=C1\CC2(CCCC2)Oc2ccc(O)cc21	4.00	3.96	4.05	4.00	
NC(=O)N/N=C1\CC2(CCCCCC2)Oc2ccc(O)cc21	2.95	2.95	2.95	2.95	
O=C1CC2(CCCCC2)Oc2ccc(O)cc21	3.72	4.05	4.05	3.68	
NC(=S)N/N=C1\CC2(CCCCC2)Oc2ccc(O)cc21	3.09	2.87	3.08	2.95	
O=c1[nH]cc(F)c(=O)[nH]1 [FLUOROURACIL]	4.15	4.70		4.70	Activity [17]: 123 ×10⁶ /ml; Activity [18]: 42.3%; Activity [19]: 72.53%; Activity [20]: 10 g/dL; MST [21]: 15.7 days
CC1(C)C/C(=N\NC(N)=S)c2cc(O)ccc2O1	3.85	3.85	3.82	3.92	
O=C1CC2(CCCCCC2)Oc2ccc(O)cc21	2.84	2.82	2.88	2.84	
NC(=S)N/N=C1\CC2(CCCC2)Oc2ccc(O)cc21	4.00	4.00	4.05	4.00	
NC(=S)N/N=C1\CC2(CCCCCC2)Oc2ccc(O)cc21	2.84	2.79	2.84	2.82	
CC1(C)Oc2ccc(O)cc2-c2nn[se]c21	4.22	4.22	4.30	4.15	
CC1(C)C/C(=N\NC(N)=O)c2cc(O)ccc2O1	3.92	3.82	3.77	3.85	
CC(=O)NC1=NN(C(C)=O)C2(CC(C)(C)Oc3ccc(OC(C)=O)cc32)S1 (stereo not drawn)	4.52	4.52	4.52	4.52	inhibition [5]: Active; Activity [6]: 98.9%; Activity [7]: 45%; inhibition [8]: Active; inhibition [9]: Active; LD50 at 9 days [10]: 248 mg/kg; Activity [11]: 11.9 g/dL; Activity [12]: Non-toxic; Activity [13]: Toxic; Activity [14]: 110 ×10⁶ /ml; MST [15]: 18.1 days; inhibition [16]: Active
CCC1(C)C/C(=N\NC(N)=O)c2cc(O)ccc2O1 (stereo not drawn)	4.22	4.15	4.30	4.15	
Oc1ccc2c(c1)-c1nn[se]c1C1(CCCCC1)O2	4.05	3.92	4.00	3.96	
O=C1CC2(CCCC2)Oc2ccc(O)cc21	3.34	3.19	3.13	3.29	
NC(=O)N/N=C1\CC2(CCCCC2)Oc2ccc(O)cc21	3.82	4.15	4.10	3.80	
CCC1(C)CC(=O)c2cc(O)ccc2O1 (stereo not drawn)	3.82	3.82	3.82	3.82	
Oc1ccc2c(c1)-c1nn[se]c1C1(CCCC1)O2	4.22	4.22	4.22	4.15	
Oc1ccc2c(c1)-c1nn[se]c1C1(CCCCCC1)O2	2.94	2.83	2.92	2.79	
